Experimental data reported in PubChem BioAssay (NCI).
“And” between values parts separate entries of the source, which are not always exact repeats. Equal values may be shown once.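 48-hour exposure; five concentrations; linearly interpolated endpoints. GI50 marks 50% less growth. TGI is the concentration that stops growth completely.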

How the values were obtained:
Experiment in all cases: DTP human tumour cell line panel, 48 h
[1] = test system: HL-60(TB) leukemia
[2] = test system: CCRF-CEM leukemia
[3] = test system: HCT-116 colon
[4] = test system: SF-539 CNS
[5] = test system: SF-295 CNS
[6] = test system: NCI-H460 lung
[7] = test system: RPMI-8226 leukemia
[8] = test system: ACHN renal
[9] = test system: RXF 393 renal
[10] = test system: HT29 colon

Compound	GI50 [1]	TGI [1]	GI50 [2]	TGI [2]	GI50 [3]	TGI [3]	GI50 [4]	TGI [4]	GI50 [5]	TGI [5]	GI50 [6]	TGI [6]	GI50 [7]	TGI [7]	GI50 [8]	TGI [8]	GI50 [9]	TGI [9]	GI50 [10]	TGI [10]
CC(C)CCC[C@@H](C)[C@H]1CC[C@H]2[C@@H]3CC=C4C[C@@H](C(C(=O)O)C(=O)O)CC[C@]4(C)[C@H]3CC[C@]12C	0.252 µM	1.48 µM	0.112 µM	0.913 µM	0.101 µM	0.798 µM	0.107 µM	0.407 µM	0.0643 µM	0.153 µM	0.16 µM	0.497 µM	0.353 µM	0.938 µM	0.15 µM	0.662 µM	0.192 µM	0.662 µM	0.224 µM	1.06 µM
COC(=O)[C@@H]1[C@H](O)[C@H](C)[C@H](O)[C@@](C)(O)/C=C\C=C(C)C(=O)Nc2c(C)c(OC(C)=O)c3c(c2O)C(=O)C(C)=C2OCOC(=C23)C(C)=C[C@@](C)(O)[C@H](O)[C@@H](C)[C@H]1OC(C)=O	11.5 µM	> 100 µM and 64.6 µM and 39.9 µM	12.8 µM	> 100 µM and 66.9 µM and 47.6 µM	59.7 µM	> 100 µM and 66.9 µM	> 66.9 µM	> 100 µM	> 66.9 µM	> 100 µM	> 66.9 µM	> 100 µM	24.1 µM	> 100 µM and 66.9 µM and 96.5 µM	> 66.9 µM	> 100 µM	–	> 100 µM	–	> 100 µM and 66.9 µM
COc1ccccc1C12OC(=O)C1(C)Oc1ccccc1C2=O (stereo not drawn)	–	> 100 µM	–	> 100 µM	–	> 100 µM	–	> 100 µM	–	> 100 µM	–	> 100 µM	–	> 100 µM	–	> 100 µM	–	> 100 µM	–	> 100 µM
COc1cc(Cc2cnc(/N=C3\C(=O)N(CN4CCN(c5c(F)cc6c(=O)c(C(=O)O)cn(C7CC7)c6c5OC)CC4C)c4ccc(F)cc43)nc2N)cc(OC)c1OC (stereo not drawn)	3.28 µM	> 100 µM	1.3 µM	4.26 µM	7.78 µM	20.6 µM	19.9 µM	47.5 µM	14.4 µM	30.2 µM	18.9 µM	> 100 µM	2.31 µM	8.24 µM	1.72 µM	14.6 µM	16 µM	49.1 µM	14.9 µM	> 100 µM
O=C(/C=C/C12c3ccccc3C(c3ccccc31)C1C(=O)NC(=O)C12)c1ccncc1 (stereo not drawn)	1.76 µM	6.1 µM	2.39 µM	8.87 µM	1.58 µM	4.31 µM	2.03 µM	5.72 µM	2.59 µM	7.54 µM	2.16 µM	4.76 µM	2.11 µM	5.48 µM	2.83 µM	8.39 µM	1.74 µM	3.27 µM	1.96 µM	4.35 µM
c1ccc2cc(-c3cc(-c4cc(-c5ccc6ccccc6c5)on4)no3)ccc2c1	–	> 100 µM	–	> 100 µM	–	> 100 µM	–	> 100 µM	–	> 100 µM	–	> 100 µM	–	> 100 µM	–	> 100 µM	–	> 100 µM	–	> 100 µM
O=C(Nc1ccc(Cl)c(Cl)c1)Nc1ccc(Cl)c(Cl)c1	2.58 µM and 2.16 µM	7.24 µM and 6.68 µM	3.36 µM and 1.97 µM	14.1 µM and 6.47 µM	2.85 µM and 2.1 µM	11 µM and 7.41 µM	2.63 µM and 3.64 µM	8.15 µM and 14.7 µM	2.3 µM and 1.84 µM	6.93 µM and 5.39 µM	2.85 µM and 2.24 µM	10.6 µM and 8.59 µM	1.79 µM and 0.997 µM	6.99 µM and 5.33 µM	2.34 µM and 3.28 µM	6.49 µM and 10.5 µM	2.81 µM and 2.57 µM	11.6 µM and 6.57 µM	3.27 µM and 2.43 µM	12.9 µM and 6.82 µM
